The values below come from ChEMBL document CHEMBL1151115, “Brianthein V, a New Cytotoxic and Antiviral Diterpene Isolated from Briareum asbestinum” (J Nat Prod, 1988).

Calls of active or inactive are those of the source. No cut-off for these calls is given here.

The test system of assay [1] is Human alphaherpesvirus 1. Description: Antiviral activity against herpes simplex virus 1 at 20 ug. The assay is classed as functional, organism-based.
Assay [2] relates to P388. Put plainly: Cytotoxicity against mouse P388 cells at 0.1 ug. The assay is classed as functional, cell-based.
For assay [3], the system named is P388. Description: Cytotoxicity against mouse P388 cells at 10 ug/ml. The assay is classed as functional, cell-based.
The test system of assay [4] is Murine hepatitis virus. Description: Antiviral activity against mouse coronavirus at 80 ug/ml. The assay is classed as functional, organism-based.
In assay [5] the test system is Human alphaherpesvirus 1. Put plainly: Antiviral activity against herpes simplex virus 1 at 80 ug/ml. The assay is classed as functional, organism-based.
The subject of assay [6] is P388. Put plainly: Cytotoxicity against mouse P388 cells at 13 ug/ml. The class given is functional, cell-based.
In assay [7] the test system is Murine hepatitis virus. Put plainly: Antiviral activity against mouse coronavirus at 50 ug/ml. The class given is functional, organism-based.
Assay [8] has as its system Murine hepatitis virus. Description: Antiviral activity against mouse coronavirus at 10 ug. The assay is classed as functional, organism-based.
Assay [9] relates to Murine hepatitis virus. Put plainly: Antiviral activity against mouse coronavirus at 400 ug/ml. The assay is classed as functional, organism-based.

As to `Nc1ncnc2c1ncn2[C@@H]1O[C@H](CO)[C@@H](O)[C@@H]1O`, the outcome in [1] was Active.
Take `O=c1[nH]cc(F)c(=O)[nH]1`: the result in [2] was Active.
For `C=C1/C=C\[C@H](OC(C)=O)[C@]2(C)[C@H]([C@@H](C)[C@H](OC(C)=O)[C@@H]3O[C@@H]32)[C@H](OC(C)=O)[C@]2(O)[C@@H](C)C(=O)O[C@H]2[C@H]1Cl`, the outcome in assay [3], in assay [4] and in [5] was Active.
For `C=C1/C=C\[C@H](OC(=O)CCC)[C@]2(C)[C@H]([C@@H](C)[C@H](OC(=O)CCC)[C@@H]3O[C@@H]32)[C@H](OC(C)=O)[C@]2(O)[C@@H](C)C(=O)O[C@H]2[C@H]1Cl`, the outcome in [6] and in assay [7] was Active.
Regarding `NC(=O)c1ncn([C@@H]2O[C@H](CO)[C@@H](O)[C@H]2O)n1`, in assay [8], the outcome was Active.
Regarding `C=C1/C=C\[C@H](OC(=O)CCC)[C@]2(C)[C@H]([C@@H](C)[C@H](OC(C)=O)[C@@H]3O[C@@H]32)[C@H](OC(C)=O)[C@]2(O)[C@@H](C)C(=O)O[C@H]2[C@H]1Cl`, in assay [9], the outcome was Active.
